Experimental data as given in patent US9295247B2, “Method of using insect bait station” (ECOLAB USA INC., priority 2008, dated 2016).

How the values were obtained:
bed bugs [1] = test: Example 2: bed bug mortality after exposure to solutions of minimum risk (25(b)) pesticides via artificial membrane feeding system; type: in vivo; conditions: for efficacy against bed bugs: exposed to lower concentrations of the solutions; for level of efficacy against bed bugs relative to the other solutions: within 120 hours of exposure
Experimental: To determine whether consumption of ingredients listed under section 25(b) of the Federal Insecticide, Fungicide, and Rodenticide Act kills bed bugs, several mixtures of salt, citric acid, potassium sorbate, sodium lauryl sulfate (SLS), castor oil, sesame oil, cinnamon oil, garlic oil, citronella oil, lemongrass oil, peppermint oil, cedar oil, clove oil, rosemary oil, thyme oil, geranium oil, geraniol, and flaxseed oil were made. Oil based solutions were dissolved into 2% sodium lauryl sulfate (“SLS”) and water mixtures. Remaining ingredients were dissolved in water. Concentrations of 1%, 5%, and 50% of each solution were made. Control solutions consisted of either human blood or water depending on the test solutions in each experiment. Groups of twenty bed bugs were offered each solution via the artificial membrane feeding system described above for 60 minutes. […] Post-exposure mortality was recorded at 24 hours and 120 hours after exposure to the active solution.

bed bugs [2] = system: bed bugs
Experimental: For the following Examples an artificial membrane feeding station was prepared and used. […] The Parafilm™ was stretched to <5.0 mils thick. The liquid bait identified in the various Examples below was placed in the sealed container.
Each solution was offered to groups of 20 bed bugs via the artificial feeding stations described above. After approximately 60 minutes, the containers of 20 bed bugs were removed from the feeding station and the number that fed to completion was recorded. Post-exposure mortality was recorded at 4 hours, 24 hours and/or 48 hours after exposure to the active solution.

bed bugs [3] = test: Example 1: post-consumption mortality of bed bugs fed on solutions via artificial membrane feeding system; type: in vivo; conditions: solution of 0.05 grams boric acid and 4.95 milliliters phosphate buffer pH 7.4; within 24 hours
Description: Boric acid is an insecticidal dust that causes death upon consumption by most insects with chewing mouthparts. Bed bugs have blood-feeding, piercing/sucking mouthparts that limit their ability to pick up and consume the insecticidal dust in its powder form. To determine whether consumption of boric acid kills bed bugs, several mixtures of boric acid and phosphate buffer, DUPONT™ ADVION™ fire ant bait including indoxacarb and phosphate buffer, and just phosphate buffer solutions were made. […] Multiple groups of ten bed bugs fed on the solutions via artificial membrane feeding systems as described above, and post-consumption mortality was recorded. […]

bed bugs [4] = test: Example 3: feeding and mortality of bed bugs offered varying concentrations of sodium chloride in water; type: in vivo
Description: To determine optimum concentrations of sodium chloride solutions (for both feeding and mortality), bed bugs were offered the following concentrations sodium chloride diluted in water on a weight percent basis: 0, 0.05, 0.25, 0.5%, 1%, 2%, 3%, 4%, 5%, 6%, 7%, 8%, 9%, 10%, 12%, 14%, 16%, 18%, 20%, 25%, 30%, 35%, 40%, 50%, 60%, 70%, 80%, 90%, and 100%.

With O=C(O)CC(O)(CC(=O)O)C(=O)O [citric acid] as the compound, how does the “efficacy against bed bugs” value (bed bugs [1]) read?
Its value is “some efficacy”.

And the “level of efficacy against bed bugs relative to the other solutions” value (bed bugs [1])?
Its value is “highest observed levels of efficacy”.

For CCCCCCCCCCCCOS(=O)(=O)[O-].[Na+] [SLS, sodium lauryl sulfate], which “efficacy against bed bugs” value (bed bugs [1]) is on record?
Its value is “some efficacy”.

And the “level of efficacy against bed bugs relative to the other solutions” value (bed bugs [1])?
The value was “highest observed levels of efficacy”.

Which results are given for OB(O)O [boric acid]?
increase in mortality (bed bugs [2]; 5% boric acid added to the sodium chloride solution): 25-60%; effect on mortality compared to sodium chloride base solutions without boric acid (bed bugs [2]; addition of 5% boric acid): significantly enhanced mortality; efficacy on bed bugs that consumed the solution (bed bugs [3]): 100%

How did the efficacy (bed bugs [1]; within 120 hours, bed bugs that consumed the solutions, concentrations of 1%, 5%, 50% made) turn out when C/C=C/C=C/C(=O)[O-].[K+] [potassium sorbate] was run?
Its efficacy is 0%.

CC(C)=CCC/C(C)=C/CO [geraniol oil, geraniol] was tested. Which “efficacy against bed bugs” value (bed bugs [1]) did it give?
Its value is “some efficacy”.

Which results are given for [Cl-].[Na+] [sodium chloride]?
mortality (bed bugs [4]; all sodium chloride solutions up to 70% wt. sodium chloride): some level of mortality; sodium chloride concentration up to which death was recorded (bed bugs [4]; just from bed bugs tasting the solutions): up to 70 weight percent; sodium chloride concentration up to which bed bugs feed to completion or engorge (bed bugs [4]; sodium chloride in water, offered about 60 minutes): up to 5%; highest levels of mortality (bed bugs [4]; solutions containing 6-12% wt. sodium chloride, within 48 hours): up to 70%; sodium chloride concentration up to which bed bugs fully engorge themselves (bed bugs [4]; solutions of sodium chloride and water): up to 5 weight percent; efficacy against bed bugs (bed bugs [1]): some efficacy; level of efficacy against bed bugs relative to the other solutions (bed bugs [1]): highest observed levels of efficacy
